One assay addresses human CB2 receptor (Homo sapiens (Human), UniProt P34972). As to the kind of experiment: Membrane [35S]GTPγS binding assay. Format: biochemical. As for the experimental part:
Human CB2 expressing CHO-K1 membranes (5 μg per incubation mixture) were diluted in 50 mM Tris-HCl (pH 7.5) and 0.5 mM EDTA and added to HU compounds in a pre-mixed incubation cocktail. Final incubation concentrations were 55 mM Tris-HCl (pH 7.4), 1 mM EDTA, 100 mM NaCl, 5 mM MgCl2, 0.5% BSA, 50 μM GDP, 0.2 nM [^35S]GTPγS (PerkinElmer) with varied HU compound concentration and 5 μg membrane. Incubations were continued for 60 minutes at 30° C. in a shaking water bath. Assays were terminated by addition of 2 ml ice cold wash buffer (50 mM Tris-HCl, pH 7.5 and 5 mM MgCl2) and filtration through pre-soaked GF/C filters (Whatman), followed by two further washes. adioactivity was determined as described for competition binding assays.
Data was analyzed using the Prism 4.02 programme (GraphPad Software, San Deigo, Calif., USA). IC50 and EC50 values, as determined from sigmoidal curves, were generated from drug concentrations plotted in log scale. […] It is possible to display data as an average, plus or minus the standard error of the mean in log form, however, this is not easily interpreted or compared to other values. It was therefore elected to calculate the 95% confidence interval for the mean value in log form and then convert the lower limit, mean and upper limit into the molar (linear) scale. […] Two-tailed t-tests for statistical analysis between enantiomeric pairs of compounds were performed for CB2 Ki values. The Pearson value, an indication of linearity, was determined for Ki and IC50 or EC50 results obtained for CB2 receptors in binding, cAMP or GTPγS experiments, respectively.
In general terms: GTPγS resists hydrolysis and so accumulates on activated G proteins.

A further assay concerns closed head injury (CHI). As to the kind of experiment: Closed head injury (CHI) model, neurological severity score, C57Bl mice. The format is in vivo. As for the experimental part: The study was conducted according to the guidelines of the Institutional Animal Care Committee of the Hebrew University. Male Sabra mice weighing 35 to 50 g were used in all experiments. Animals were kept under controlled light conditions with a 12 h/12 h light/dark cycle. Experimental closed head injury (CHI) was induced using a modified weight drop device developed in our laboratory as described previously (Chen et al., 1996). At 1 h after CHI, the functional status of the mice was evaluated according to a set of 10 neurobehavioral tasks, namely the neurological severity score (NSS). This score is based on the ability of the mice to perform 10 different tasks (Beni-Adani et al., 2001) that evaluate their motor ability, balance, and alertness. One point is given for failing to perform a task. The severity of injury is indicated by the initial NSS, which is evaluated 1 h after CHI and is also a reliable predictor of the later outcome. A score of 10 reflects maximal neurologic impairment, and a decrease of NSS during the recovery period indicates partial recovery of function.
Data was analyzed using the Prism 4.02 programme (GraphPad Software, San Deigo, Calif., USA). The data are expressed as mean±SEM and statistical significance was assessed with one way analysis of variance (ANOVA) followed by a Dunnett's post-hoc analysis for TNF-α levels. […]

Values joined by “and” are separate entries in the source; they are usually repeats but may differ in a detail not shown here. Identical values can stand only once.

For orientation: EC50 means the concentration giving half of the maximal effect. Read a low EC50 as greater potency. Usually Emax stands for the maximal effect, on the per cent scale that the assay sets. `CCCCCCC(C)(C)c1cc(OC)c(C2=C[C@H]3CC[C@]2(CO)C3(C)C)c(OC)c1` [HU-910, (1S,4R)-(2-(2,6-dimethoxy-4-(2-methyloctan-2-yl)phenyl)-7,7-dimethylbicyclo[2.2.1]hept-2-en-1-yl)methanol] registered an EC50 at human CB2 receptor of 26.4 nM. The Emax at human CB2 receptor (read-out: [35S]GTPγS Emax) is 121 ± 7%.
Turning to `CCCCCCC(C)(C)c1cc(OC)c(C2=C[C@H]3CC[C@]2(C(=O)O)C3(C)C)c(OC)c1` [HU-914, (1S,4R)-2-(2,6-dimethoxy-4-(2-methyloctan-2-yl)phenyl)-7,7-dimethylbicyclo[2.2.1]hept-2-ene-1-carboxylic acid], the “recovery, Neurological Severity Score (NSS)” value in the assay with closed head injury (CHI) (HU-914 2.5 and 5 mg/kg i.p., day 14 post injury, vs vehicle or 10 mg/kg) is recorded as “significant greater recovery”. Also, the “most effective doses (NSS recovery)” value with closed head injury (CHI) (i.p. 1 h after CHI, followed 14 days) was 2.5 mg/kg and 5 mg/kg.

For the origin of these results see patent publication US9365534B2, “Arylated camphenes, processes for their preparation and uses thereof” (Yissum Research Development Company of the Hebrew …, priority 2009, dated 2016).
